We go through four compounds from ChEMBL document CHEMBL1201862, “PubChem BioAssay data set” (2004).

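All cell lines were grown in 96-well plates and treated with compound for 48 hours. At the GI50, growth is halved.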 Activity calls are given as the source filed them. No stated cut-off is given here; in the data, active = GI50 up to about 1.1 µM and inactive = higher.

Some test systems named below: HL-60; HCT-15; SF-268; OVCAR-5; NCI-H460; DU-145; MDA-MB-231; MOLT-4; OVCAR-8; UACC-62; NCI/ADR-RES; CAKI-1; SF-295; SK-MEL-5; MDA-MB-435; SNB-19; SK-MEL-2; KM12; LOX IMVI; OVCAR-3.
Common to all, as to assay: growth of human tumour cells (NCI), 48 h

In the case of `CN(C)/C=N/c1cc(=O)n(C)c(=O)n1C`, the GI50 in the experiment with HL-60 is > 100 µM (inactive); in the experiment with HCT-15 it was above 100 µM; in the experiment with SF-268, > 100 µM (inactive); in the experiment on OVCAR-5 it was > 100 µM (inactive); in the experiment on NCI-H460 it was > 100 µM (inactive); in the experiment on DU-145, > 100 µM (inactive). The GI50 in the experiment with MDA-MB-231, in the experiment on MOLT-4, in the experiment with OVCAR-8, with UACC-62, with NCI/ADR-RES and with CAKI-1 was > 100 µM (inactive) each time. Besides, the GI50 in the experiment with SF-295, with SK-MEL-5, with MDA-MB-435, in the experiment on SNB-19, with SK-MEL-2 and in the experiment with KM12 was > 100 µM (inactive) throughout. Besides, the GI50 in the experiment with LOX IMVI and in the experiment on OVCAR-3 was > 100 µM (inactive) throughout.

Turning to `C=CC(C)(O)/C=C/C=C(\C)C(CC1OC1(C)C)OC(=O)/C(C)=C\C` (stereo not given), the GI50 with HL-60 is > 100 µM (inactive); with HCT-15, above 100 µM; in the experiment with SF-268, > 100 µM (inactive); with OVCAR-5, > 100 µM (inactive); with NCI-H460 it was > 100 µM (inactive); in the experiment with DU-145, > 100 µM (inactive). For the same compound, the GI50 in the experiment on MDA-MB-231, in the experiment with MOLT-4, with OVCAR-8, with UACC-62, in the experiment on NCI/ADR-RES and with CAKI-1 was > 100 µM (inactive) throughout. Besides, the GI50 in the experiment with SF-295, in the experiment on SK-MEL-5, in the experiment on MDA-MB-435, in the experiment on SNB-19, in the experiment with SK-MEL-2 and in the experiment with KM12 was > 100 µM (inactive) each time. Further, the GI50 in the experiment with LOX IMVI and in the experiment on OVCAR-3 was > 100 µM (inactive) throughout.

With `CCCCC(=O)OC[n+]1cccc(-c2c(COC(=O)NC(C)C)c(COC(=O)NC(C)C)c3n2CCC3)c1`, the GI50 is 10.7 µM (inactive) in the experiment with HL-60; 53.3 µM in the experiment with HCT-15; 24.8 µM (inactive) with SF-268; > 68.1 µM (inactive) in the experiment on OVCAR-5; 15 µM (inactive) in the experiment on NCI-H460; 25.8 µM (inactive) in the experiment with DU-145. Besides, the GI50 in the experiment with MDA-MB-231 is 62.5 µM (inactive); with MOLT-4, 8.93 µM (inactive); in the experiment on OVCAR-8 it was 44 µM (inactive); in the experiment with UACC-62, 20 µM (inactive); in the experiment with NCI/ADR-RES, 34.9 µM (inactive); in the experiment on CAKI-1, 12.3 µM (inactive). Also, the GI50 with SF-295 is 52.2 µM (inactive); in the experiment with SK-MEL-5, 35.6 µM (inactive); with MDA-MB-435, 64.9 µM (inactive); in the experiment with SNB-19, > 92.3 µM (inactive); with SK-MEL-2, 26.4 µM (inactive); in the experiment with KM12 it was > 100 µM (inactive). The GI50 in the experiment on LOX IMVI is 21.7 µM (inactive); in the experiment with OVCAR-3, 57.3 µM (inactive).

Take `O=c1[nH][nH]c(=S)c(=O)[nH]1`: the GI50 in the experiment with HL-60 was > 100 µM (inactive); with HCT-15, above 100 µM; with SF-268, > 100 µM (inactive); in the experiment on OVCAR-5, > 100 µM (inactive); in the experiment with NCI-H460 it was > 100 µM (inactive); in the experiment with DU-145, > 100 µM (inactive). Besides, the GI50 with MDA-MB-231, with MOLT-4, with OVCAR-8, in the experiment on UACC-62, with NCI/ADR-RES and with CAKI-1 was > 100 µM (inactive) throughout. Also, the GI50 with SF-295, in the experiment on SK-MEL-5, with MDA-MB-435, with SNB-19, in the experiment with SK-MEL-2 and in the experiment on KM12 was > 100 µM (inactive) each time. Besides, the GI50 with LOX IMVI and in the experiment on OVCAR-3 was > 100 µM (inactive) in each case.
